Key:
[1] = molecular target: Matrix metalloproteinase-9 (Homo sapiens, UniProt P14780); experiment: MMP Inhibition Assay
Description: (§1) This assay was performed as outlined in the Anaspec MMP assay kit. The fluorescence peptide cleavage assay was performed in a 96-well plate in which each reaction mixture contained 5-FAM / QXL520 and activated MMP-2 or MMP-9 in assay buffer, and the screening compounds.

[2] = molecular target: 72 kDa type IV collagenase (Homo sapiens, UniProt P08253); experiment: MMP Inhibition Assay
Sequence of 72 kDa type IV collagenase (P08253 whole entry): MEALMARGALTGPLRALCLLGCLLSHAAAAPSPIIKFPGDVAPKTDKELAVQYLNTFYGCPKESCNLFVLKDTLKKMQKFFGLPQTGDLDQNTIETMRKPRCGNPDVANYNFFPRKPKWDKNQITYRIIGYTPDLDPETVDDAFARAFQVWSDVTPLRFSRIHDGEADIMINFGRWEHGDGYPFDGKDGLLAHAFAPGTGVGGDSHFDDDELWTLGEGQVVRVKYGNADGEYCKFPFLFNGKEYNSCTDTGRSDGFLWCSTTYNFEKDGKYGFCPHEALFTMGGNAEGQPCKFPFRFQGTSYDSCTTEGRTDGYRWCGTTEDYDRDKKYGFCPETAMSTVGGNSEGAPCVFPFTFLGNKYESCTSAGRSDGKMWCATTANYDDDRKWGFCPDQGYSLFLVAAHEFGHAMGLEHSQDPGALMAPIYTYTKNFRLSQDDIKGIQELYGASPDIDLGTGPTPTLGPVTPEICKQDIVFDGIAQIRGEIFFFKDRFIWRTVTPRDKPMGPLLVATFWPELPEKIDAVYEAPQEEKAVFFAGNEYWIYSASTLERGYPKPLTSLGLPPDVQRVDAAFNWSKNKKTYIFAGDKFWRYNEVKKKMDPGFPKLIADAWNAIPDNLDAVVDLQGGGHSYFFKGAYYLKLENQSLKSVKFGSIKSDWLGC
Description: as §1

Sequence of Matrix metalloproteinase-9 (P14780 whole entry): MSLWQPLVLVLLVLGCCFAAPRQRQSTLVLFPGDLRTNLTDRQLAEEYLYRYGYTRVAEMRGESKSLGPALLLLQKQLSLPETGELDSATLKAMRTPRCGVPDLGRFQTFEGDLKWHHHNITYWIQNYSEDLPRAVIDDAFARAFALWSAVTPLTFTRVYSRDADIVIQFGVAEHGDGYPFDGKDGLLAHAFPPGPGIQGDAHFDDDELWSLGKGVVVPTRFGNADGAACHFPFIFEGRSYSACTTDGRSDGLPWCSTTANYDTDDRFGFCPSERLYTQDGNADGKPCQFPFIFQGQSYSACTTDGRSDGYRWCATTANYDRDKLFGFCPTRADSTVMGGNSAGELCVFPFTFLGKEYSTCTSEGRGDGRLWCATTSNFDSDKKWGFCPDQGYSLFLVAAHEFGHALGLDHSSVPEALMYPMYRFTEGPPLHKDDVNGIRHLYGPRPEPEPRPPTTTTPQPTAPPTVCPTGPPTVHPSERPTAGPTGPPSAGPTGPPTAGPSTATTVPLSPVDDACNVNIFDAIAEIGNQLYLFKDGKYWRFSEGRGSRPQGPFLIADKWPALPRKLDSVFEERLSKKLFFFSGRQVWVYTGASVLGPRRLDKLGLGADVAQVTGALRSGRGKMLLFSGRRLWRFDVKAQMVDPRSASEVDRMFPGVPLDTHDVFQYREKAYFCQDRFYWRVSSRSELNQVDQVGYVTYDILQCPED

Structure (SMILES)	IC50 [1] [µM]	IC50 [2] [µM]
O=C(O)CN1C(=O)/C(=C/c2c[nH]c3ccc(Br)cc23)SC1=S [2-[(5Z)-5-[(5-bromo-1H-indol-3-yl)methylidene]-4-oxo-2-sulfanylidene-1,3-thiazolidin-3-yl]acetic acid]	> 100	–
O=C(O)CN1C(=O)/C(=C/c2cc(-c3ccc(Br)cc3)on2)SC1=S [2-[(5Z)-5-{[5-(4-bromophenyl)-1,2-oxazol-3-yl]methylidene}-4-oxo-2-sulfanylidene-1,3-thiazolidin-3-yl]acetic acid]	27.4	> 100
O=C(O)CN1C(=O)/C(=C/c2cc(-c3ccc(Cl)cc3)on2)SC1=S [2-[(5Z)-5-{[5-(4-chlorophenyl)-1,2-oxazol-3-yl]methylidene}-4-oxo-2-sulfanylidene-1,3-thiazolidin-3-yl]acetic acid]	> 100	19.2
Cc1nc(-c2ccccc2)c(/C=C2\SC(=S)N(CC(=O)O)C2=O)s1 [2-[(5Z)-5-[(2-methyl-4-phenyl-1,3-thiazol-5-yl)methylidene]-4-oxo-2-sulfanylidene-1,3-thiazolidin-3-yl]acetic acid]	> 100	> 100
Cc1nc(/C=C2\SC(=S)N(CC(=O)O)C2=O)c(C)o1 [2-[(5Z)-5-[(2,5-dimethyl-1,3-oxazol-4-yl)methylidene]-4-oxo-2-sulfanylidene-1,3-thiazolidin-3-yl]acetic acid]	> 100	> 100
CC(C)(C)OC(=O)N1CCC(c2nc(/C=C3\SC(=S)N(CC(=O)O)C3=O)cs2)CC1 [2-[(5Z)-5-[(2-{1-[(tert-butoxy)carbonyl]piperidin-4-yl}-1,3-thiazol-4-yl)methylidene]-4-oxo-2-sulfanylidene-1,3-thiazolidin-3-yl]acetic acid]	> 100	> 100
COc1ccc(-c2cc(/C=C3\SC(=S)N(CC(=O)O)C3=O)no2)cc1 [2-[(5Z)-5-{[5-(4-methoxyphenyl)-1,2-oxazol-3-yl]methylidene}-4-oxo-2-sulfanylidene-1,3-thiazolidin-3-yl]acetic acid]	> 100	6.62
Cc1ccc(-c2cc(/C=C3\SC(=S)N(CC(=O)O)C3=O)no2)cc1 [2-[(5Z)-5-{[5-(4-methylphenyl)-1,2-oxazol-3-yl]methylidene}-4-oxo-2-sulfanylidene-1,3-thiazolidin-3-yl]acetic acid]	> 100	< 10
O=C(O)CN1C(=O)/C(=C/c2cc(-c3ccc(F)cc3)on2)SC1=S [2-[(5Z)-5-{[5-(4-fluorophenyl)-1,2-oxazol-3-yl]methylidene}-4-oxo-2-sulfanylidene-1,3-thiazolidin-3-yl]acetic acid]	> 100	10
O=C(O)CN1C(=O)/C(=C/c2cc(-c3ccccc3)on2)SC1=S [2-[(5Z)-4-oxo-5-[(5-phenyl-1,2-oxazol-3-yl)methylidene]-2-sulfanylidene-1,3-thiazolidin-3-yl]acetic acid]	50	> 100
O=C(O)CN1C(=O)/C(=C/c2cc(-c3ccco3)on2)SC1=S [2-[(5Z)-5-{[5-(furan-2-yl)-1,2-oxazol-3-yl]methylidene}-4-oxo-2-sulfanylidene-1,3-thiazolidin-3-yl]acetic acid]	> 100	–
